Source: publication PMC7339578, “Multiple circulating alkaloids and saponins from intravenous Kang-Ai injection inhibit human cytochrome P450 and UDP-glucuronosyltransferase isozymes: potential drug–drug interactions” (Chinese Medicine, 2020)
Values joined by “and” are separate entries in the source; they are usually repeats but may differ in a detail not shown here. Identical values can stand only once. Like-named read-outs stand apart in the source and are kept apart here.

Legend:
[1] = Protein binding assay (equilibrium dialysis); assay type: in vitro ADME, rat
Description: Binding of circulating alkaloids and saponins to rat plasma was measured by equilibrium dialysis using Spectra/Por 2 dialysis membranes (molecular weight cutoff, 12–14 kDa; Rancho Dominguez, CA, USA) as described. After equilibrating for 24 h at 55 rpm and 37 °C, the dialysate and the plasma were sampled for analysis. […] The concentrations of tested matrine, oxysophocarpine and oxymatrine were 2 μmol/L, while those of astragaloside IV, III, and ginsenosides Rh1, Rg2, Rg1, Rf, Re, Rd, Rc, Rb1, Rb2, notoginsenosides R1, R2, were 4 μmol/L. The unbound fraction (fu-plasma) in rat plasma was calculated as follow: fu-plasma = Cd/Cp × 100%, where the Cd and Cp values were the concentrations of each analyte in the dialysate sample and in the post-dialysis plasma sample, respectively.

[2] = Urinary (renal) excretion in rats after a 30-min infusion of Kang-Ai injection; assay type: in vivo, Sprague–Dawley rats; details: Kang-Ai injection 6 mL/kg iv; for CL renal: male, Sprague-Dawley, rat, read-out: CLR (renal excretory clearance) (converted); for fe-U,0–12h (fraction of dose excreted into urine): rat urine 0–12 h
Outline: (§1)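 Urine collected in metabolic cages at 0–4, 4–8, 8–12 h and bile at 0–3, 3–6, 6–9, 9–12 h after infusion start, weighed and frozen at −80 °C. Non-compartmental analysis; CLR and CLB as cumulative urinary or biliary amount divided by plasma AUC0-∞, fe-U and fe-B as cumulative amount/dose; mean ± SD (n = 3).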

[3] = Stability tests of analytes in rat plasma QC samples; assay type: in vitro ADME; details: rat plasma
Description: […] The dilution integrity was investigated by analyzing six replicate samples with each analyte, and each analyte were diluted 10-fold with blank rat matrix. Furthermore, the diluted samples were analyzed using freshly prepared calibration curve to calculate RE and RSD, which should be no more than ± 15% as criterion.

[4] = Biliary (hepatobiliary) excretion in rats after a 30-min infusion of Kang-Ai injection; assay type: in vivo, Sprague–Dawley rats; details: rat bile 0–12 h; Kang-Ai injection 6 mL/kg iv
Outline: as §1

[5] = Plasma pharmacokinetics in rats after a 30-min intravenous infusion of Kang-Ai injection; assay type: in vivo, Sprague–Dawley rats
Outline: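 Fasted male Sprague–Dawley rats (250 ± 20 g) got a single 30-min tail-vein infusion of Kang-Ai injection at 6 mL/kg. Jugular blood was sampled from 5 min to 12 h for plasma. Parameters came from non-compartmental analysis (trapezoidal AUC), n = 3.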

UGT2B7 = system: UGT2B7; set-up: method as in PMID 27916843; details: read-out: Ki towards UGT2B7; cited from earlier work
UGT1A8 = details: cited from earlier work
[6] = male, Sprague-Dawley, rat, in vivo, iv

SMILES	fe-U,0–12h (fraction of dose excreted into urine) [2]	At -80 °C for 48 h, Mean±SD ([3]; nominal conc. 20 nM) [nM]	At -80 °C for 48 h, RE ([3]; nominal conc. 20 nM) [%]	Extracted samples at 8 °C for 18 h, Mean±SD ([3]; nominal conc. 20 nM) [nM]	Extracted samples at 8 °C for 18 h, RE ([3]; nominal conc. 20 nM) [%]	Short-term stability at room temperature for 6 h, Mean±SD ([3]; nominal conc. 20 nM) [nM]	Short-term stability at room temperature for 6 h, RE ([3]; nominal conc. 20 nM) [%]	Three freeze-thaw cycles (-80 °C ↔ 23 °C), Mean±SD ([3]; nominal conc. 20 nM) [nM]	Three freeze-thaw cycles (-80 °C ↔ 23 °C), RE ([3]; nominal conc. 20 nM) [%]	At -80 °C for 48 h, Mean±SD ([3]; nominal conc. 100 nM) [nM]	At -80 °C for 48 h, RE ([3]; nominal conc. 100 nM) [%]	Extracted samples at 8 °C for 18 h, Mean±SD ([3]; nominal conc. 100 nM) [nM]	Extracted samples at 8 °C for 18 h, RE ([3]; nominal conc. 100 nM) [%]	Short-term stability at room temperature for 6 h, Mean±SD ([3]; nominal conc. 100 nM) [nM]	Short-term stability at room temperature for 6 h, RE ([3]; nominal conc. 100 nM) [%]	Three freeze-thaw cycles (-80 °C ↔ 23 °C), Mean±SD ([3]; nominal conc. 100 nM) [nM]	Three freeze-thaw cycles (-80 °C ↔ 23 °C), RE ([3]; nominal conc. 100 nM) [%]	At -80 °C for 48 h, Mean±SD ([3]; nominal conc. 400 nM) [nM]	At -80 °C for 48 h, RE ([3]; nominal conc. 400 nM) [%]	Extracted samples at 8 °C for 18 h, Mean±SD ([3]; nominal conc. 400 nM) [nM]	also measured
O=C1C=CC[C@@H]2[C@H]3CCC[N+]4([O-])CCC[C@@H](CN12)[C@@H]34 (some centres unmarked) [Compound A2, Oxysophocarpine]	38.60% and 38.60 ± 11.22%	21.90 ± 0.32	10.73	22.58 ± 0.11	13.22	20.94 ± 1.33	12.22	22.63 ± 0.15	13.81	112.64 ± 0.85	13.54	108.59 ± 6.59	14.25	103.12 ± 8.16	12.17	103.40 ± 9.41	12.06	437.15 ± 14.08	11.61	432.22 ± 7.29	fraction unbound at 24 h ([1]; rat plasma, equilibrium dialysis 24 h, 37 °C, 2 μmol/L alkaloids, 4 μmol/L saponins, read-out: fu-plasma (unbound fraction)): 0.912 ± 0.0495; CL renal ([2]; in vivo): 0.0792 mL/min; fraction of dose excreted unchanged via renal plus hepatobiliary excretion (sum of fe-U and fe-B) ([2]; rat urine + bile, 0–12 h): exceeded 90%; Extracted samples at 8 °C for 18 h, RE ([3]; nominal conc. 400 nM): 9.98%; Short-term stability at room temperature for 6 h, Mean±SD ([3]; nominal conc. 400 nM): 439.31 ± 14.14 nM; Short-term stability at room temperature for 6 h, RE ([3]; nominal conc. 400 nM): 12.94%; Three freeze-thaw cycles (-80 °C ↔ 23 °C), Mean±SD ([3]; nominal conc. 400 nM): 418.53 ± 37.48 nM; Three freeze-thaw cycles (-80 °C ↔ 23 °C), RE ([3]; nominal conc. 400 nM): 14.91%; fe-B,0–12h (fraction of dose excreted into bile) [4]: 51.92% and 51.92 ± 8.98%; Cmax ([5]; male, Sprague-Dawley, in vivo, rat plasma, 30-min iv infusion of Kang-Ai injection 6 mL/kg, read-out: Cmax): 170 ± 27.4 nM; half-life ([5]; male, Sprague-Dawley, in vivo, rat plasma, 30-min iv infusion of Kang-Ai injection 6 mL/kg, read-out: t1/2 (converted)): 107 ± 93 min; clearance ([5]; male, Sprague-Dawley, in vivo, rat, 30-min iv infusion of Kang-Ai injection 6 mL/kg, Table 1 unit, read-out: CLtot, p (converted)): 0.205 mL/min; Vd ([5]; male, Sprague-Dawley, in vivo, rat, 30-min iv infusion of Kang-Ai injection 6 mL/kg, Table 1 unit, read-out: VSS): 0.0252 ± 0.0148 L; clearance ([5]; male, Sprague-Dawley, in vivo, rat, Kang-Ai injection 6 mL/kg iv, read-out: CLtot, p (converted)): 0.205 mL/min/kg; Vd ([5]; male, Sprague-Dawley, in vivo, rat, Kang-Ai injection 6 mL/kg iv, read-out: VSS (Vd)): 0.0252 L/kg
CC(C)(O)[C@@H]1CC[C@](C)([C@H]2[C@@H](O)C[C@@]3(C)[C@@H]4C[C@H](O)[C@H]5C(C)(C)[C@@H](O)CC[C@@]56C[C@@]46CC[C@]23C)O1 [cycloastragenol]	–	–	–	–	–	–	–	–	–	–	–	–	–	–	–	–	–	–	–	–	Ki (UGT2B7): 21 µM; Ki (UGT1A8): 34 nM
CC(C)=CCC[C@](C)(O[C@@H]1O[C@H](CO)[C@@H](O)[C@H](O)[C@H]1O)[C@H]1CC[C@]2(C)[C@@H]1[C@H](O)C[C@@H]1[C@@]3(C)CC[C@H](O)C(C)(C)[C@@H]3[C@@H](O[C@@H]3O[C@H](CO)[C@@H](O)[C@H](O)[C@H]3O[C@@H]3OC[C@@H](O)[C@H](O)[C@H]3O)C[C@]12C [Compound C8, Notoginsenoside R1]	72.12 ± 13.01%	20.74 ± 0.96	8.27	19.67 ± 2.39	-11.85	17.74 ± 0.16	-12.08	21.51 ± 1.68	12.79	98.21 ± 9.98	9.58	97.66 ± 12.82	12.46	92.24 ± 4.21	-10.97	97.29 ± 6.47	-10.11	413.01 ± 31.69	11.76	402.54 ± 33.33	fu-plasma (unbound fraction) ([1]; rat plasma, equilibrium dialysis 24 h, 37 °C, 2 μmol/L alkaloids, 4 μmol/L saponins): 90.36 ± 4.22%; Extracted samples at 8 °C for 18 h, RE ([3]; nominal conc. 400 nM): 9.82%; Short-term stability at room temperature for 6 h, Mean±SD ([3]; nominal conc. 400 nM): 357.29 ± 9.94 nM; Short-term stability at room temperature for 6 h, RE ([3]; nominal conc. 400 nM): -13.09%; Three freeze-thaw cycles (-80 °C ↔ 23 °C), Mean±SD ([3]; nominal conc. 400 nM): 379.04 ± 38.85 nM; Three freeze-thaw cycles (-80 °C ↔ 23 °C), RE ([3]; nominal conc. 400 nM): -14.53%; fe-B,0–12h (fraction of dose excreted into bile) [4]: 12.00 ± 1.57%; t1/2 ([5]; rat plasma, 30-min iv infusion of Kang-Ai injection 6 mL/kg): 45 ± 9.6 min; Cmax ([5]; rat plasma, 30-min iv infusion of Kang-Ai injection 6 mL/kg, read-out: Cmax): 121 ± 21.1 nM
CC(C)=CCC[C@](C)(O)[C@H]1CC[C@]2(C)[C@@H]1[C@H](O)C[C@@H]1[C@@]3(C)CC[C@H](O)C(C)(C)[C@@H]3[C@@H](O[C@@H]3O[C@H](CO)[C@@H](O)[C@H](O)[C@H]3O[C@@H]3O[C@@H](C)[C@H](O)[C@@H](O)[C@H]3O)C[C@]12C [Compound C5, Ginsenoside Rg2]	2.23 ± 0.61%	19.84 ± 1.04	-6.64	21.07 ± 0.87	8.32	19.68 ± 2.51	12.85	21.26 ± 1.22	11.13	96.95 ± 8.62	-8.82	98.05 ± 6.29	-8.46	87.52 ± 0.79	-12.97	104.41 ± 11.32	12.73	410.70 ± 32.70	8.22	404.47 ± 42.95	fraction unbound at 24 h ([1]; rat, plasma): 0.265 ± 0.0328; CL renal ([2]; urine and plasma): 0.0552 mL/min; Extracted samples at 8 °C for 18 h, RE ([3]; nominal conc. 400 nM): -10.83%; Short-term stability at room temperature for 6 h, Mean±SD ([3]; nominal conc. 400 nM): 361.60 ± 11.46 nM; Short-term stability at room temperature for 6 h, RE ([3]; nominal conc. 400 nM): -11.77%; Three freeze-thaw cycles (-80 °C ↔ 23 °C), Mean±SD ([3]; nominal conc. 400 nM): 374.05 ± 38.03 nM; Three freeze-thaw cycles (-80 °C ↔ 23 °C), RE ([3]; nominal conc. 400 nM): -12.71%; fe-B,0–12h (fraction of dose excreted into bile) [4]: 20.76 ± 3.37%; Cmax [5, 6]: 231 ± 17.4 nM; clearance [5, 6]: 2.63 mL/min; half-life [5, 6]: 586 ± 825 min; AUC(0-t) ([5]; male, Sprague-Dawley, rat, in vivo, iv, AUC0–12h): > 0.1 µM·h
